From patent US9133240B2, “Compounds binding to the bacterial beta ring” (Centre National de la Recherche Scientifique, priority 2011, dated 2015)
Where “and” joins values, the source holds several entries; their conditions need not be identical. Identical values can stand only once. Square brackets hold non-standard residues; d marks the D form. Peptide text beside a SMILES is read from it. Phe(4-Cl) = N[C@@H](Cc1ccc(Cl)cc1)C(=O)O; Phe(4-Me) = Cc1ccc(C[C@H](N)C(=O)O)cc1; hCha = N[C@@H](CCC1CCCCC1)C(=O)O; tBuAla = CC(C)(C)C[C@H](N)C(=O)O; Cha = N[C@@H](CC1CCCCC1)C(=O)O; hLeu = CC(C)CC[C@H](N)C(=O)O

Experiments:
E. coli β clamp = biological target: T1, E. coli β clamp (Escherichia coli, UniProt P0A988); test: SPR competition assay: inhibition of P1-β interaction by challenging peptides; assay type: binding; conditions: for ΔG: ΔG = −RT ln Ki; for IC50: IC50 (μM), inhibition of binding of β ring (0.25 μM) to immobilized P1; for Ki (10^6 M^−1): Ki = (1 + KA[β])/IC50;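 on all read-outs here: SPR responses corrected for background, then fitted with a 1:1 Langmuir binding model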
T1 construct: made in house; host or cells: E. coli BL21 (β); P1 by solid-phase synthesis
T1 sequence (P0A988 whole entry): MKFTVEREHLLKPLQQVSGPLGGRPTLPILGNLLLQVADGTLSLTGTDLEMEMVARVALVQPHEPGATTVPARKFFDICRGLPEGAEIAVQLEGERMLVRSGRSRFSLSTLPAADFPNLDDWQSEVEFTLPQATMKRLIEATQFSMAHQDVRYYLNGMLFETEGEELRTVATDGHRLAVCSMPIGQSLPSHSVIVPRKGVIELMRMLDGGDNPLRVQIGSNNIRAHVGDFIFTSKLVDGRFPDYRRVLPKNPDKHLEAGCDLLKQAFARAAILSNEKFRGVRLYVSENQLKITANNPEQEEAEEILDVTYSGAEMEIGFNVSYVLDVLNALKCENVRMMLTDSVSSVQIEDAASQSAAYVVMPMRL
Protocol: SPR experiments were performed on a Biacore® 3000. […] After subtraction of the background response, the data were fit to the 1:1 Langmuir model using BIAevaluation (Biacore™). […] IC50 values for each challenging peptide were determined by plotting the concentration of peptide against the percentage of binding inhibition. The IC50 value of each peptide was used to calculate Ki (Ki=(1+KA[β])/IC50) which measures the affinity of the challenging peptide for β in the competition assay, and AG was derived from Ki (ΔG=RT ln Ki).

β ring = biological target: T2, β ring (Escherichia coli, UniProt P0A988); test: Isothermal titration calorimetry (ITC) of peptides into β ring solution; assay type: binding, E. coli; conditions: for N: number of binding sites per β monomer / ΔG: ITC, 25° C; for N: number of binding sites per β monomer: peptide 400 μM, β 20 or 30 μM; for ΔG: ΔG = ΔH-TΔS; for ΔΔG (Kcal/mol) = ΔGj − ΔGi, reference i = P7: compared to P7
T2 construct: made in house; host or cells: E. coli BL21
T2 sequence (P0A988 whole entry): as above
Protocol: ITC was performed by using a ITC200 microcalorimeter from MicroCal. Peptides (400 μM) were titrated in sequential injections (2 μl each) into a β ring solution (300 μl, 20 or 30 μM) at 25° C. Data were corrected from control experiments where peptides were injected in buffer solution (Hepes 10 mM pH 7.4, NaCl 0.15M, EDTA 3 mM, P20 0.005%). Data analysis was performed with Origin 7.0 software.

Compound | ΔG (E. coli β clamp; SPR) | IC50 (E. coli β clamp; SPR) | Ki (10^6 M^−1) (E. coli β clamp; SPR) | also measured
CC(C)C[C@H](NC(=O)[C@H](CC(=O)O)NC(=O)[C@H](CC(C)C)NC(=O)[C@@H](N)CCC(N)=O)C(=O)N[C@@H](Cc1ccccc1)C(=O)O [Peptide P5, H-Gln-Leu-Asp-Leu-Phe-OH] | -28.7 kJ/mol |  |  | 
CC(=O)N[C@@H](CCC(N)=O)C(=O)N[C@@H](CC(C)C)C(=O)N[C@@H](CC(=O)O)C(=O)N[C@@H](CC(C)C)C(=O)N[C@@H](Cc1ccccc1)C(=O)O [Peptide P6, Ac-Gln-Leu-Asp-Leu-Phe-OH] | -34.4 kJ/mol |  |  | N: number of binding sites per β monomer (β ring): 1.11 and 1.14
CC(=O)N[C@@H](CCC(N)=O)C(=O)N[C@@H](CC1CCCCC1)C(=O)N[C@@H](CC(=O)O)C(=O)N[C@@H](CC(C)C)C(=O)N[C@@H](Cc1ccccc1)C(=O)O [Peptide P7, Ac-Gln-Cha-Asp-Leu-Phe-OH] (Ac-Q[Cha]DLF-OH) | -39.4 kJ/mol | 0.17 µM | 8.01 10^6 M^−1 | Ki (E. coli β clamp): 0.17 µM; fold decrease in affinity compared to P14 (E. coli β clamp; SPR): 2 fold; fold increase in interaction/affinity compared to P6 (E. coli β clamp; SPR): 6 fold; ΔG (β ring): -37.2 kJ/mol; N: number of binding sites per β monomer (β ring): 0.74 and 0.76; ΔΔG (Kcal/mol) = ΔGj − ΔGi, reference i = P6 (β ring; from ITC data, compared to P6): -0.66 kcal/mol
CC(=O)N[C@@H](CCC(N)=O)C(=O)N[C@@H](CCC1CCCCC1)C(=O)N[C@@H](CC(=O)O)C(=O)N[C@@H](CC(C)C)C(=O)N[C@@H](Cc1ccccc1)C(=O)O [Peptide P8, Ac-Gln-hCha-Asp-Leu-Phe-OH] (Ac-Q[hCha]DLF-OH) | -24 kJ/mol | 82.8 µM | 16.4 10^6 M^−1 | 
CC(=O)N[C@@H](CCC(N)=O)C(=O)N[C@@H](CCC(C)C)C(=O)N[C@@H](CC(=O)O)C(=O)N[C@@H](CC(C)C)C(=O)N[C@@H](Cc1ccccc1)C(=O)O [Peptide P9, Ac-Gln-Hol-Asp-Leu-Phe-OH] | -35.7 kJ/mol | 0.74 µM | 1.84 10^6 M^−1 | 
CC(=O)N[C@@H](CCC(N)=O)C(=O)N[C@@H](CC(C)(C)C)C(=O)N[C@@H](CC(=O)O)C(=O)N[C@@H](CC(C)C)C(=O)N[C@@H](Cc1ccccc1)C(=O)O [Peptide P10, Ac-Gln-NptGly-Asp-Leu-Phe-OH] (Ac-Q[tBuAla]DLF-OH) | -35 kJ/mol | 0.99 µM | 1.36 10^6 M^−1 | 
CC(=O)N[C@@H](CCC(N)=O)C(=O)N[C@@H](CC1CCCCC1)C(=O)N[C@@H](CC(=O)O)C(=O)N[C@@H](CC(C)C)C(=O)N[C@@H](Cc1ccc(C)cc1)C(=O)O [Peptide P11, Ac-Gln-Cha-Asp-Leu-pMePhe-OH] (Ac-Q[Cha]DL[Phe(4-Me)]-OH) | -39.5 kJ/mol | 0.26 µM | 8.43 10^6 M^−1 | ΔG (β ring): -36 kJ/mol; N: number of binding sites per β monomer (β ring): 0.95; ΔΔG (Kcal/mol) = ΔGj − ΔGi, reference i = P7 (β ring; from ITC data): +0.25 Kcal/mol
CC(=O)N[C@@H](CCC(N)=O)C(=O)N[C@@H](CC1CCCCC1)C(=O)N[C@@H](CC(=O)O)C(=O)N[C@@H](CC(C)C)C(=O)N[C@@H](Cc1ccc(Cl)cc1)C(=O)O [Peptide P12, Ac-Gln-Cha-Asp-Leu-pClPhe-OH] (Ac-Q[Cha]DL[Phe(4-Cl)]-OH) | -40.7 kJ/mol | 0.16 µM | 13.7 10^6 M^−1 | N: number of binding sites per β monomer (β ring): 1.02 and 1.06; ΔΔG (Kcal/mol) = ΔGj − ΔGi, reference i = P7 (β ring; from ITC data): -0.6 kcal/mol; ΔΔG (Kcal/mol) = ΔGj − ΔGi, reference i = P11 (β ring; from ITC data, compared to P11): -0.85 kcal/mol; ΔΔG (Kcal/mol) = ΔGj − ΔGi, reference i = P13 (β ring; from ITC data, compared to P13): -0.32 kcal/mol
CC(=O)N[C@@H](CCCNC(=N)N)C(=O)N[C@@H](CCC(N)=O)C(=O)N[C@@H](CC1CCCCC1)C(=O)N[C@@H](CCCNC(=N)N)C(=O)N[C@@H](CC(C)C)C(=O)N[C@@H](Cc1ccccc1)C(=O)O [Peptide P14-7, Ac R Q Cha R L F] (Ac-RQ[Cha]RLF-OH; N-terminus and C-terminus assumed) |  |  |  | affinity ratio compared to P7 (E. coli β clamp; SPR): at least 50
CC(=O)N[C@@H](CCCNC(=N)N)C(=O)N[C@@H](CCC(N)=O)C(=O)N[C@@H](CC1CCCCC1)C(=O)N[C@@H](CCCCN)C(=O)N[C@@H](CC(C)C)C(=O)N[C@@H](Cc1ccccc1)C(=O)O [Peptide P14-8, Ac R Q Cha K L F] (Ac-RQ[Cha]KLF-OH; C-terminus assumed) |  |  |  | Ki (E. coli β clamp): 0.904 µM; affinity for the target (E. coli β clamp; SPR): 1 µM; fold decrease in affinity compared to P14 (E. coli β clamp; SPR): 10 fold
CC(=O)N[C@@H](CCC(N)=O)C(=O)N[C@@H](CC1CCCCC1)C(=O)N[C@@H](CC(=O)O)C(=O)N[C@@H](CCC(C)C)C(=O)N[C@@H](Cc1ccccc1)C(=O)O [Peptide P16, Ac Q Cha D hLeu F] (Ac-Q[Cha]D[hLeu]F-OH; C-terminus assumed) |  | 0.23 µM |  | 
CC(=O)N[C@@H](CCC(N)=O)C(=O)N[C@@H](CC1CCCCC1)C(=O)N[C@@H](CC(=O)O)C(=O)N[C@@H](CC1CCCCC1)C(=O)N[C@@H](Cc1ccccc1)C(=O)O [Peptide P17, Ac Q Cha D Cha F] (Ac-Q[Cha]D[Cha]F-OH; C-terminus assumed) |  | 0.31 µM |  | 
CC(=O)N[C@@H](CCC(N)=O)C(=O)N[C@@H](CC1CCCCC1)C(=O)N[C@@H](CC(=O)O)C(=O)N[C@@H](CCC1CCCCC1)C(=O)N[C@@H](Cc1ccccc1)C(=O)O [Peptide P18, Ac Q Cha D hCha F] (Ac-Q[Cha]D[hCha]F-OH; C-terminus assumed) |  | 0.72 µM |  | 
CC(=O)N[C@@H](CCC(N)=O)C(=O)N[C@@H](CC1CCCCC1)C(=O)N[C@@H](CC(=O)O)C(=O)N[C@@H](CC(C)(C)C)C(=O)N[C@@H](Cc1ccccc1)C(=O)O [Peptide P19, Ac Q ChaD NptGly F] (Ac-Q[Cha]D[tBuAla]F-OH; C-terminus assumed) |  | 5.63 µM |  | 
CC(=O)N[C@@H](CCC(N)=O)C(=O)N[C@@H](CC1CCCCC1)C(=O)N[C@@H](CC(=O)O)C(=O)N[C@@H](CC(C)C)C(=O)N[C@@H](CC1CCCCC1)C(=O)O [Peptide P20, Ac-Q Cha DL Cha] (Ac-Q[Cha]DL[Cha]-OH; C-terminus assumed) |  | 0.41 µM |  | 
CC(=O)N[C@@H](CCC(N)=O)C(=O)N[C@@H](CC1CCCCC1)C(=O)N[C@@H](CC(=O)O)C(=O)N[C@@H](CC(C)C)C(=O)N[C@@H](Cc1c[nH]c2ccccc12)C(=O)O [Peptide P21, Ac-Q Cha DLW] (Ac-Q[Cha]DLW-OH; C-terminus assumed) |  | 0.64 µM |  | 
H-RQLVFL-OH [Peptide P4, H-Arg-Gln-Leu-Val-Phe-Leu-OH] |  | 256 µM |  | 
H-RQLVLL-OH [Peptide P2, H-Arg-Gln-Leu-Val-Leu-Leu-OH] | -27.4 kJ/mol | 21.5 µM | 0.0063 10^6 M^−1 | 
